Columns and labels:
Assay type in all cases: in vivo, Kunming mice
endothelin-1 (ET-1) = assay: Serum gastrointestinal hormone ELISA: ET-1; details: Bis group: bisacodyl 100 mg/kg per day
Protocol: (§1) After a week of adaptive culture, 40 mice are randomly divided into 5 groups, with 8 mice in each group, namely the group of normal control (NC), group of model (GM), BC69 low-dose group (BC-L), BC69 high-dose group (BC-H) and bisacodyl drug treatment group (Bis). During the experiment, saline gavage of 0.25 mL is administered daily to NC and GM mice; from day 1 to day 4, all mice except NC mice are additionally gavaged with loperamide hydrochloride suspension (1 mg/mL) 0.25 mL twice daily (at 9:00 a.m. and 2:00 p.m. respectively) to induce a functional constipation model of mice; after gavage on day 4, all mice are fasted from food but not water for 16 h; from day 5 to day 11, […] are gavaged with Bacillus coagulans BC suspension 0.25 mL every day, where the concentrations are 1.0×10^8 colony-forming units per milliliter (CFU/mL) and 4.0×10^9 CFU/mL respectively; mice of group Bis are gavaged with bisacodyl aqueous solution at 100 milligrams per kilogram (mg/kg) per day; after the completion of gavage on day 11, all groups of mice are fasted from food but not water for 16 h. […]
(§2) The contents of endothelin (ET), gastrin (Gas), motilin (MTL), substance P (SP), somatostatin (SS) and vasoactive intestinal peptide (VIP) in serum are determined according to the instructions of the enzyme-linked immuno sorbent assay (ELISA) kit.

gastrin (Gas) = assay: Serum gastrointestinal hormone ELISA: Gas; details: Bis group: bisacodyl 100 mg/kg per day
Protocol: as §1, §2

motilin (MTL) = assay: Serum gastrointestinal hormone ELISA: MTL; details: Bis group: bisacodyl 100 mg/kg per day
Protocol: as §1, §2

substance P (SP) = assay: Serum gastrointestinal hormone ELISA: SP; details: Bis group: bisacodyl 100 mg/kg per day
Protocol: as §1, §2

somatostatin (SS) = assay: Serum gastrointestinal hormone ELISA: SS; details: Bis group: bisacodyl 100 mg/kg per day
Protocol: as §1, §2

[1] = tested on: vasoactive intestinal peptide (VIP); assay: Serum gastrointestinal hormone ELISA: VIP; details: Bis group: bisacodyl 100 mg/kg per day
Protocol: as §1, §2

COX-2 mRNA = assay: RT-qPCR mRNA expression in small intestine: COX-2; details: 2^−ΔΔCt, actin reference, Bis group: bisacodyl 100 mg/kg per day
Protocol: (§3) After a week of adaptive culture, 40 mice are randomly divided into 5 groups, with 8 mice in each group, namely the group of normal control (NC), group of model (GM), BC69 low-dose group (BC-L), BC69 high-dose group (BC-H) and bisacodyl drug treatment group (Bis). […]
(§4) Messenger ribonucleic acid (mRNA) expressions of COX-2, c-kit, NFκB, iNOS, eNOS, nNOS and SCF are detected by RT-qPCR, and total RNA is extracted and complementary deoxyribonucleic acid (cDNA) reverse transcription is carried out according to the instructions of RNA extraction kit and cDNA reverse transcription kit; then a microspectrophotometer is used to identify the purity of the RNA at 260/280 nanometers (nm). Actin (actin) is used as a standardized internal reference for RT-qPCR analysis, and final RT-qPCR product expression is determined using the 2^−ΔΔCt method.

c-kit mRNA = assay: RT-qPCR mRNA expression in small intestine: c-kit; details: 2^−ΔΔCt, actin reference, Bis group: bisacodyl 100 mg/kg per day
Protocol: as §3, §4

NFκB mRNA = assay: RT-qPCR mRNA expression in small intestine: NFκB; details: 2^−ΔΔCt, actin reference, Bis group: bisacodyl 100 mg/kg per day
Protocol: as §3, §4

iNOS mRNA = assay: RT-qPCR mRNA expression in small intestine: iNOS; details: 2^−ΔΔCt, actin reference, Bis group: bisacodyl 100 mg/kg per day
Protocol: as §3, §4

eNOS mRNA = assay: RT-qPCR mRNA expression in small intestine: eNOS; details: 2^−ΔΔCt, actin reference, Bis group: bisacodyl 100 mg/kg per day
Protocol: as §3, §4

nNOS mRNA = assay: RT-qPCR mRNA expression in small intestine: nNOS; details: 2^−ΔΔCt, actin reference, Bis group: bisacodyl 100 mg/kg per day
Protocol: as §3, §4

SCF mRNA = assay: RT-qPCR mRNA expression in small intestine: SCF; details: 2^−ΔΔCt, actin reference, Bis group: bisacodyl 100 mg/kg per day
Protocol: as §3, §4

SMILES: CC(=O)Oc1ccc(C(c2ccc(OC(C)=O)cc2)c2ccccn2)cc1 [Bis, bisacodyl]
- ET-1 (endothelin-1 (ET-1)): 21.44 ± 1.28 pg/mL
- Gas (gastrin (Gas)): 10.09 ± 0.69 pg/mL
- MTL (motilin (MTL)): 57.89 ± 2.65 pg/mL
- SP (substance P (SP)): 51.60 ± 3.48 pg/mL
- SS (somatostatin (SS)): 28.09 ± 1.89 pg/mL
- VIP [1]: 36.13 ± 2.37 pg/mL
- mRNA expression levels COX-2 (COX-2 mRNA): 0.43 ± 0.05
- mRNA expression levels c-kit (c-kit mRNA): 0.08 ± 0.01
- mRNA expression levels NFκB (NFκB mRNA): 2.21 ± 0.84
- mRNA expression levels iNos (iNOS mRNA): 0.04 ± 0.00
- mRNA expression levels eNos (eNOS mRNA): 0.03 ± 0.00
- mRNA expression levels nNos (nNOS mRNA): 0.04 ± 0.00
- mRNA expression levels SCF (SCF mRNA): 3.66 ± 0.62
